Data: patent publication US20200069702A1, “ORAL PHARMACEUTICAL COMPOSITIONS COMPRISING AN UNMICRONIZED SELECTIVE PROGESTERONE RECEPTOR AS ACTIVE AGENT” (Repros Therapeutics Inc., priority 2016, published 2020)

Tested on: uterine fibroids
Assay: Phase 2 study of orally administered Formulation B in women with uterine fibroids
Format: in vivo, human
Text: After menses occurred, a second 18 week course of treatment followed.

COCC(=O)[C@@]1(OC(C)=O)CC[C@H]2[C@@H]3CCC4=CC(=O)CCC4=C3[C@@H](c3ccc(N(C)C)cc3)C[C@@]21C [CDB-4124, 21-methoxy-17a-acetoxy-11β-(4 N, N-dimethylaminophenyl)-19-norpregna-4,9-diene-3,20-dione]
reduction in fibroid size (volume) compared to baseline (oral 12 mg once per day, after two 18 week cycles, median, p=0.0004 vs placebo): 64.9% | subjects who achieved amenorrhea (oral 12 mg once per day, end of second 18 week course (36 weeks total active treatment)): 100% | improvement in Uterine Fibroid Symptom Severity Score (UFSQOL), LOCF median (oral 12 mg once per day, p=0.0211 vs placebo): 70.9% | subjects who achieved amenorrhea (vaginally treated subjects (comparison)): 50%
